ChEMBL document CHEMBL1201862, “PubChem BioAssay data set” (2004)
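Method: 48-hour compound exposure of cells in 96-well plates, five concentrations, linear interpolation of endpoints. GI50: concentration for 50% inhibition of growth.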 Activity calls are given as the source filed them. Cut-off read from the data, not from the text of the source: active = GI50 up to about 1.1 µM and inactive = higher.

Assays:
Test in all cases: DTP human tumour cell line panel, 48 h
[1] = test system: SK-OV-3
[2] = test system: HT-29
[3] = test system: RPMI-8226
[4] = test system: OVCAR-8
[5] = test system: M14
[6] = test system: SF-295
[7] = test system: SF-539
[8] = test system: MOLT-4
[9] = test system: NCI-H23
[10] = test system: HOP-62
[11] = test system: KM12
[12] = test system: SNB-75
[13] = test system: OVCAR-4
[14] = test system: SN12C
[15] = test system: SR
[16] = test system: SF-268
[17] = test system: 786-0

Measured: GI50

CCOC(=O)NC1CC2CCC1(OC)C=C2C (stereo not drawn)
inactive: [1] > 100 µM | [2] > 100 µM | [3] > 100 µM | [4] > 100 µM | [5] > 100 µM | [6] > 100 µM | [7] > 100 µM | [8] > 100 µM | [9] > 100 µM | [10] > 100 µM | [11] > 100 µM | [12] > 100 µM | [13] > 100 µM | [14] > 100 µM | [15] > 100 µM | [16] > 100 µM | [17] > 100 µM

CC1=CC(C)(C)N=C2SC(c3ccc(N)cc3)=NN12
inactive: [1] > 100 µM | [2] 32.1 µM | [3] 21.1 µM | [4] 55.7 µM | [5] > 83.8 µM | [6] > 91.8 µM | [7] > 100 µM | [8] 42.2 µM | [9] > 81.1 µM | [10] > 100 µM | [11] > 70.6 µM | [12] > 52.5 µM | [13] > 93.8 µM | [14] > 95.9 µM | [15] 46.9 µM | [16] > 67.6 µM | [17] 57.1 µM

COc1ccc(N2C(=O)[C@@H]3[C@@H]4CC(C)CC[C@@H]4c4c([nH]c5ccccc45)[C@@H]3C2=O)cc1 (stereo partly drawn)
inactive: [1] 7.98 µM | [2] 47.4 µM | [3] > 10 µM | [4] 12.8 µM | [5] 26.4 µM | [6] 12.4 µM | [7] 8.38 µM | [8] 19.8 µM | [9] 15.5 µM | [10] 12.6 µM | [11] 50.1 µM | [12] 2.82 µM | [13] 18 µM | [14] 11.2 µM | [15] 12.6 µM | [16] 13.3 µM | [17] 7.45 µM

Cc1noc(/N=C2\C=C(Nc3onc(C)c3C)C(=O)c3ccccc32)c1C
inactive: [1] > 100 µM | [2] > 100 µM | [3] 25.1 µM | [4] 16 µM | [5] > 100 µM | [6] > 100 µM | [7] > 100 µM | [8] > 100 µM | [9] 27.5 µM | [10] > 100 µM | [11] > 100 µM | [12] 69.3 µM | [13] > 100 µM | [14] > 100 µM | [15] 24.3 µM | [16] 86.3 µM | [17] > 100 µM
